From patent US20140148470A1, “PYRIMIDINE COMPOUNDS FOR TREATING HAIRLOSS” (Boehringer Ingelheim International GmbH, priority 2012, published 2014)
Read-outs that look alike come from different tables or passages of the source.

Assays:
human CRTH2 = target: T1, human CRTH2 (Homo sapiens, UniProt Q9Y5Y4); assay: Measurement of Ca2+ mobilization in the human CRTH2-transfected L1.2 cell line; type: cell-based; conditions: PGD2-induced Ca2+ mobilization, human CRTH2-transfected L1.2 cells; compounds as yielded by solid phase synthesis, purity about 40 to 90%; read-out: Activity class (IC50)
T1 construct: expressed in transfected cells; host or cells: L1.2 cells (pEAK expression vector, puromycin selection)
T1 sequence (Q9Y5Y4 1-395): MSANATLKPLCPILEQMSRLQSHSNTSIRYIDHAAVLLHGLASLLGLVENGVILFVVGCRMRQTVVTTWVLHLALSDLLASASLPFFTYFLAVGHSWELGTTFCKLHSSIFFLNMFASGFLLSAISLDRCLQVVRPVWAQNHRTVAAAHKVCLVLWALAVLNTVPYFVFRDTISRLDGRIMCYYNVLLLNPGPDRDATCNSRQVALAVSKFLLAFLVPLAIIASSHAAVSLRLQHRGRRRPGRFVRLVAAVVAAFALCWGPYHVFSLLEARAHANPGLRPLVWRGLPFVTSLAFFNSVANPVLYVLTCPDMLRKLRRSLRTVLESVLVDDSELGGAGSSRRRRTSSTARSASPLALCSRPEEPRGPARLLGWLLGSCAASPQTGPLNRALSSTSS
Source text: [Preparation of Human CRTH2-Transfected L1. 2 Cell Line]
Human CRTH2 cDNA was amplified from human eosinophil cDNA with gene specific primers containing restriction sites for cloning into pEAK vector (Edge Bio Systems). The human CRTH2 cDNA was cloned into the mammalian expression vector pEAK. This expression plasmid ([…]) was transfected into L1. 2 cells, at a cell density of 1×10^7 cells/[…], by using electroporation apparatus (Gene Pulser II, BioRad) at 250V/[…]. One day after the transfection, puromycin (1 ug/mi, Sigma) was added into the cell culture plates. Two weeks after the transfection, grown cells were picked up for further growth.
[Measurement of Ca^2+ Mobilization in the Human CRTH2-Transfected L1. 2 Cell Line]
Ca^2+ loading buffer was prepared by mixing […] of Fluo-3AM (2 mM in DMSO, final 1 uM, Molecular Probes) and 10 µl of pluronic F-127 (Molecular Probes) and diluting the resulting mixture in 10 ml of Ca^2+ assay buffer (20 mM HEPES pH 7.6, 0.1% BSA, 1 mM probenecid, Hanks' solution). The CRTH2 transfected cells which were prepared in Example 1 were washed with PBS, resuspended in Ca2+ loading buffer at […] cells/ml, and incubated for 60 min at room temperature. After incubation, cells were washed and resuspended in Ca^2+ assay buffer, then dispensed into transparent-bottom 96-well plates (# 3631, Costar) at 2×10^5 cells/well. Cells were incubated with various concentrations of test compound for 5 minutes at room temperature. The emitted […] fluorescence was measured on FDSS6000, a Ca^2+-measurement apparatus (Hamamatsu Photonics, Hamamatsu, Japan).
The data corresponds to the compounds as yielded by solid phase synthesis and thus to levels of purity of about 40 to 90%. For practical reasons, the compounds are grouped in four classes of activity as follows: IC50=A (< or =) 10 nM<B (< or =) 100 nM<C (< or =) 500 nM<D. The compounds of the present invention also show excellent selectivity, and potent activity in Assays 2,3 and 4 described above.

[1] = system: explanted human hair follicles; conditions: cited from earlier work
CRTH2 (GPR44) = target: T2, CRTH2 (GPR44) (Mus musculus, UniProt Q9Z2J6); conditions: topical to skin, cited from earlier work
T2 construct: host or cells: skin of wild-type mice, in vivo
T2 sequence (Q9Z2J6 1-382): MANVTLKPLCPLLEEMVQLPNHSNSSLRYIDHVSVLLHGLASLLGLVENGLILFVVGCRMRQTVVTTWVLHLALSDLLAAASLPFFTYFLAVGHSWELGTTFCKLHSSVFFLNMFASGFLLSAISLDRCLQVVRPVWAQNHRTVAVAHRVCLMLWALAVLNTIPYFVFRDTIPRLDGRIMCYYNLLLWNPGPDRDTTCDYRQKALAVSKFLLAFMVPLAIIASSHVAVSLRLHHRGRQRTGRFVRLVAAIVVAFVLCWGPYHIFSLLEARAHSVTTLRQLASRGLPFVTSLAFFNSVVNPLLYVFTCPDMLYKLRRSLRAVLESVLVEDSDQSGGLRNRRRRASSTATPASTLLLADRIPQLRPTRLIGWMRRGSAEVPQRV

| SMILES | IC50 (human CRTH2) [µM] | also measured |
| --- | --- | --- |
| CN(C)c1nc(Cc2ccc(NC(=O)c3ccc4ccccc4c3)cc2)ncc1CC(=O)O [Example 10] | < 0.01 |  |
| O=C(O)Cc1c(Cl)nc(Cc2ccc(NC(=O)c3ccc4ccccc4c3)cc2)nc1Cl [Example 20] | < 0.01 |  |
| CN(C)c1nc(Cc2ccc(NC(=O)c3ccc4ccccc4c3)cc2)nc(Cl)c1Cc1nnn[nH]1 [Example 21] | < 0.01 |  |
| CN(C)c1nc(Cc2ccc(NC(=O)c3ccc4ccccc4c3)cc2)nc(Cl)c1CC(N)=O [Example 22] | 0.01 to 0.1 |  |
| CN(C)c1nc(Cc2ccc(NC(=O)c3ccc(C(F)(F)F)cc3)cc2)nc(N(C)C)c1CC(=O)O [Example 14] | < 0.01 |  |
| CN(C)c1nc(Cc2ccc(NC(=O)c3ccc4ccccc4c3)cc2)nc(Cl)c1CC(=O)O [Example 1] | < 0.01 |  |
| CCCCC[C@H](O)/C=C/[C@H]1C(=O)C[C@H](O)[C@@H]1C/C=C\CCCC(=O)O [PGD2, prostaglandin D2] |  | hair growth [1]: inhibited hair growth; hair growth (CRTH2 (GPR44); CRTH2 (GPR44) knockout mice): not; hair growth (CRTH2 (GPR44); wild-type mice): inhibited hair growth |
